# In PubChem BioAssay AID1552 (Sanford-Burnham Center for Chemical Genomics, 2009):
# Active and inactive are the calls of the source. How the calls were made is not given here.
# Target: Ubiquitin-conjugating enzyme E2 N (Homo sapiens) (UniProt P61088)
# Assay: NMR detection of UBE2N ligand binding – biophysical, purified protein (AID 1552)
# Details: NMR binding to purified UBE2N
# Chain of Ubiquitin-conjugating enzyme E2 N (Homo sapiens) (P61088 whole entry, looked up): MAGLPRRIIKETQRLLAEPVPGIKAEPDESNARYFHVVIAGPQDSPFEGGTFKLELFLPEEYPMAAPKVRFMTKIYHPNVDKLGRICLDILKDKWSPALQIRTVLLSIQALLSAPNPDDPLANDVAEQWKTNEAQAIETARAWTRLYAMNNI
row,Compound,Kd
1,Cc1cc(N)n(-c2ccccc2)n1,> 4 mM (inactive)
2,CC(C)c1ccc2c(c1)CCC1[C@](C)(CN)CCC[C@]21C (some centres undefined),> 4 mM (inactive)
3,CC(=O)Nc1ccc2c(c1)n(C)c(=O)n2C,> 4 mM (inactive)
4,CC1=C2C(=CO[C@H](C)[C@H]2C)C(=O)C(C(=O)O)=C1O,> 4 mM (inactive)
5,Cc1ccc2cc(N)ccc2n1,> 4 mM (inactive)
6,Nc1cc(=O)[nH]c(=S)n1-c1cccc(C(F)(F)F)c1,> 4 mM (inactive)
7,O=C(Nc1ccccn1)C(=O)N1CCCC1,> 4 mM (inactive)
8,NC1=NC(=O)CC(C(=O)Nc2ccccc2)S1 (centres undefined),> 4 mM (inactive)
9,CC(C1OC(C)(C)C(O)C1O)[C@@H]1CC[C@]2(C)C3=CCC4C(C)(C)C(=O)CC[C@]4(C)C3CC[C@@]12C (some centres undefined),> 4 mM (inactive)
10,CC1=C(/C=C/C(C)=C/C=C/C(C)=C/CO)C(C)(C)CCC1,> 4 mM (inactive)
11,O=C(O)C(CO)c1ccccc1 (centres undefined),> 4 mM (inactive)
12,Nc1ccncc1,> 4 mM (inactive)
13,NC(=O)C1CC2C=CC1C2 (centres undefined),> 4 mM (inactive)
14,CCc1noc(C)c1C(=O)Nc1ncc(C)s1,> 4 mM (inactive)
15,C/C=C(\C)c1nnc(NC(=O)c2ccco2)s1,> 4 mM (inactive)
16,Cc1sc2nc3n(c(=O)c2c1C)CCCS3,> 4 mM (inactive)
17,O=C(O)C1CC(=O)N(Cc2cccs2)C1 (centres undefined),> 4 mM (inactive)
18,O=C(O)c1ccc2c(c1)OCCCO2,> 4 mM (inactive)
19,CC(=O)O[C@H]1CC[C@@]2(C)C(CC[C@]3(C)C2CC=C2C4CC(C)(C)CC[C@]4(C)CC[C@]23C)C1(C)C (some centres undefined),> 4 mM (inactive)
20,Oc1cnc2ccccc2c1CN1CCOCC1,> 4 mM (inactive)
21,Cc1ccccc1NC(=O)c1ccccc1,> 4 mM (inactive)
22,Nc1nc(-c2ccc(Cl)cc2)nn1C(=O)c1cccnc1,> 4 mM (inactive)
23,O=C(CN1CCOCC1)Nc1nccs1,> 4 mM (inactive)

row,Compound,Kd
1,O=C(O)c1cccnc1,> 4 mM (inactive)
2,CC(C)NC1CS(=O)(=O)CC1O (centres undefined),> 4 mM (inactive)
3,O=C(c1nc2ncccn2n1)N1CCc2ccccc2C1,> 4 mM (inactive)
4,Cc1cc(=O)n(C(N)=S)[nH]1,> 4 mM (inactive)
5,Cc1cc(C)c2ccc[n+]([O-])c2c1O,> 4 mM (inactive)
6,O=C(Nc1ncccn1)c1cccc(F)c1,> 4 mM (inactive)
7,CNC(=O)CC1Sc2ccccc2NC1=O (centres undefined),> 4 mM (inactive)
8,CNC(=O)C(=O)Nc1ccc(F)cc1,> 4 mM (inactive)
9,O=C1CSC2=NCCCN12,> 4 mM (inactive)
10,CSc1nnc2c(n1)OC(C)=Nc1ccccc1-2,> 4 mM (inactive)
11,COc1cc(C(C)=O)ccc1OC(=O)N1CCOCC1,> 4 mM (inactive)
12,c1ccc2[nH]c(-c3cscn3)nc2c1,> 4 mM (inactive)
13,Nc1nnc(C(F)(F)F)s1,> 4 mM (inactive)
14,O=C1CC(=O)N(Cc2ccco2)C(=S)N1,> 4 mM (inactive)
15,S=C(Cc1cccnc1)N1CCOCC1,> 4 mM (inactive)
16,CCSc1n[nH]c(=O)[nH]c1=O,> 4 mM (inactive)
17,Cc1ccc(NC(=O)C(=O)Nc2ccccn2)cc1,> 4 mM (inactive)
18,NS(=O)(=O)c1ccc(NC(=S)NC2CC2)cc1,> 4 mM (inactive)
19,Nc1cccc(S(=O)(=O)N2CCCC2)c1,> 4 mM (inactive)
20,NC1=C(c2ccccc2)C(=O)c2ccccc21,> 4 mM (inactive)
21,O=c1ccnc(Nc2ccccc2O)[nH]1,> 4 mM (inactive)
22,CCOc1ccc(C(=O)c2ccncc2)cc1,> 4 mM (inactive)
23,COc1cnn(Cc2ccccc2)c(=O)c1Cl,> 4 mM (inactive)

row,Compound,Kd
1,COc1cc(O)c(C(C)=O)c(OC)c1,> 4 mM (inactive)
2,O=C(O)c1sccc1-n1cccc1,> 4 mM (inactive)
3,O=c1c2c(nc3nc(COc4ccccc4)[nH]n13)CCC2,> 4 mM (inactive)
4,O=C(c1ccccc1)c1cncc(Br)c1,> 4 mM (inactive)
5,Nc1c(S(=O)(=O)c2ccccc2)csc1C(=O)O,> 4 mM (inactive)
6,NN1C(=O)/C(=C/c2ccc(O)c(O)c2)SC1=S,> 4 mM (inactive)
7,NCCNC(=S)Nc1ccccc1,> 4 mM (inactive)
8,Nc1cccc(NC(=O)c2ccco2)c1,> 4 mM (inactive)
9,O=C(N1CCOCC1)N1CCN(c2ccccn2)CC1,> 4 mM (inactive)
10,NCCc1ccc(S(N)(=O)=O)cc1,> 4 mM (inactive)
11,CS(=O)(=O)Cc1ccccc1,> 4 mM (inactive)
12,CCNC(CC(=O)Nc1ccc(O)cc1)C(=O)O (centres undefined),> 4 mM (inactive)
13,CCOC(=O)c1c(C)cc(O)cc1O,> 4 mM (inactive)
14,CCC(=O)n1nc(-c2ccco2)nc1N,> 4 mM (inactive)
15,O=C1NC(=O)/C(=C/c2ccc(O)cc2)N1,> 4 mM (inactive)
16,Cc1cc(=O)oc2c1c(C)nn2CN1CCN(C)CC1,> 4 mM (inactive)
17,COC1CC(O[C@H]2CC[C@]3(C=O)C4CC[C@]5(C)C(C6=CC(=O)OC6)CC[C@]5(O)C4CC[C@]3(O)C2)OC(C)C1O (some centres undefined),> 4 mM (inactive)
18,O=C(O)C1CC(=O)N(Cc2ccco2)C1 (centres undefined),> 4 mM (inactive)
19,CC(C)c1c(O)ccc2c1CCC1[C@@](C)(CO)CCC[C@]21C (some centres undefined),> 4 mM (inactive)
20,COc1ccc(S(=O)(=O)NCCO)cc1,> 4 mM (inactive)
21,Cc1cc(=O)n2[nH]c(C)cc2n1,> 4 mM (inactive)
22,C[n+]1ccn(C/C(N)=N/O)c1,> 4 mM (inactive)
23,COc1ccc(/C=C2\NC(=S)N(C)C2=O)cc1O,> 4 mM (inactive)

row,Compound,Kd
1,O=c1c[n+]([O-])c2ccccc2n1OCc1ccccn1,> 4 mM (inactive)
2,O=C1CC(c2ccccc2)n2ncnc2N1 (centres undefined),> 4 mM (inactive)
3,C[C@@H]1CC[C@H]2[C@@H](C)C(=O)O[C@@H]3OC4(C)CC[C@@H]1[C@]32OO4,> 4 mM (inactive)
4,O=C(Nc1ccccc1CO)c1ccccc1F,> 4 mM (inactive)
5,Cn1cnc2c(cnn2-c2ccccc2)c1=O,> 4 mM (inactive)
6,CC(=O)c1cc(C)ccc1O,> 4 mM (inactive)
7,CN1C(=O)C(Cc2c[nH]c3ccccc23)C(=O)N(C)C1=O,> 4 mM (inactive)
8,O=C1c2ccccc2C(=O)c2c1ccc(O)c2O,> 4 mM (inactive)
9,Cc1nc(-c2ccc(CO)s2)cs1,> 4 mM (inactive)
10,OCC1CNc2ccccc2O1 (centres undefined),> 4 mM (inactive)
11,CC(=O)Cc1nsc(NC(=O)c2ccc(C)cc2)n1,> 4 mM (inactive)
12,NCc1n[nH]c(=O)c2ccccc12,> 4 mM (inactive)
13,OCc1ccncc1,> 4 mM (inactive)
14,COC(=O)[C@@H]1OC(=O)C2OC23[C@@]1(C)CCC1[C@]2(C)C(C[C@H](O)[C@]13C)C(C)(C)[C@H](OC(C)=O)C[C@@H]2OC(C)=O (some centres undefined),> 4 mM (inactive)
15,CC1=NN2C(=N)/C(=C\c3cccs3)C(=O)N=C2S1,> 4 mM (inactive)
16,OCc1ccccc1N1CCOCC1,> 4 mM (inactive)
17,[O-][n+]1cc(O)c(CN2CCOCC2)c2ccccc21,> 4 mM (inactive)
18,Cc1cc(C)cc(C(=O)n2cnnc2N)c1,> 4 mM (inactive)
19,Cc1cc(N)no1,> 4 mM (inactive)
20,CC(=O)Nc1cccc(N(C)S(C)(=O)=O)c1,> 4 mM (inactive)
